Measurements: patent US20240158446A1, “CYCLIC COMPOUND HAVING SELECTIVE INHIBITORY ACTION ON KRAS OVER HRAS AND NRAS” (CHUGAI SEIYAKU KABUSHIKI KAISHA, priority 2021, published 2024)

Tests used:
[1] = molecular target: GDP-bound NRAS wild-type protein (Homo sapiens, UniProt P01111); assay: Binding to NRAS by surface plasmon resonance (SPR), Single Cycle Kinetics; conditions: SPR, GDP-bound NRAS wild-type protein vs GDP-bound KRAS wild-type protein
[2] = molecular target: GDP-bound HRAS wild-type protein (Homo sapiens, UniProt P01112); assay: Binding to HRAS by surface plasmon resonance (SPR), Single Cycle Kinetics; conditions: SPR, GDP-bound HRAS wild-type protein vs GDP-bound KRAS wild-type protein
[3] = molecular target: GDP-bound KRAS wild-type protein (Homo sapiens, UniProt P01116); assay: Binding to KRAS by surface plasmon resonance (SPR), Single Cycle Kinetics; conditions: SPR Single Cycle Kinetics, GDP-bound KRAS wild-type protein, 1:1 binding model; read-out: KRAS KD
Sequence of GDP-bound KRAS wild-type protein (P01116 whole entry): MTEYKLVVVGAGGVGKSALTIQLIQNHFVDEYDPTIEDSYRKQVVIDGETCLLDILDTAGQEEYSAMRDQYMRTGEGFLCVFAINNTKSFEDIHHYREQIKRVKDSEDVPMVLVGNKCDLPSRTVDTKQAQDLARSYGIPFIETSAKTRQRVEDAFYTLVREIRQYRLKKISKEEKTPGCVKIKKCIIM

Sequence of GDP-bound NRAS wild-type protein (P01111 whole entry): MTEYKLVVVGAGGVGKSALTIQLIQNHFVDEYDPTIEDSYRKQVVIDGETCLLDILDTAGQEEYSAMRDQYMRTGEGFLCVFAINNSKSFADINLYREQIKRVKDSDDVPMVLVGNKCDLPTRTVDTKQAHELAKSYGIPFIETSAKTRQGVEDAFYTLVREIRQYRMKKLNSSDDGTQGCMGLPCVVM
Sequence of GDP-bound HRAS wild-type protein (P01112 whole entry): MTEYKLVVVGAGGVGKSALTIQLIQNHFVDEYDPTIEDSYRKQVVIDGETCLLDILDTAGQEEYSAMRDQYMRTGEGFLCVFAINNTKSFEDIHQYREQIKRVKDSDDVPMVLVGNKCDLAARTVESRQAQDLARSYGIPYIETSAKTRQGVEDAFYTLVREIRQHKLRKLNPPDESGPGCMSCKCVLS

Structure (SMILES) | Kd [3] [nM] | NRAS/KRAS (ratio of KD value with respect to NRAS to KD value with respect to KRAS) [1] | HRAS/KRAS (ratio of KD value with respect to HRAS to KD value with respect to KRAS) [2]
CC[C@H](C)[C@@H]1NC(=O)[C@H](CC(C)C)N(C)C(=O)C[C@@H](C(=O)N2CCOCC2)N(C)C(=O)[C@H](C2CCCC2)N(C)C(=O)C2(COC2)NC(=O)[C@@H]2CCCN2C(=O)[C@H](CCc2cc(F)c(C(F)(F)F)c(F)c2)NC(=O)CN(C)C(=O)[C@H](Cc2ccc(C(F)(F)F)cc2)N2CCCC[C@@H](C2=O)N(C)C(=O)CN(C)C1=O [PP0563] | 0.1 | B (a compound having 3 or more and less than 10 is denoted as B) | B (a compound having 3 or more and less than 10 is denoted as B)
CC[C@H](C)[C@@H]1NC(=O)[C@H](CC(C)C)N(C)C(=O)C[C@@H](C(=O)N2CCOCC2)N(C)C(=O)[C@H](C2CCCC2)N(C)C(=O)C2(CCOCC2)NC(=O)[C@@H]2CCCN2C(=O)[C@H](CCc2cc(F)c(C(F)(F)F)c(F)c2)NC(=O)CN(C)C(=O)[C@H](Cc2ccc(C(F)(F)F)cc2)N2CCCC[C@@H](C2=O)N(C)C(=O)CN(C)C1=O [PP0564] | 0.18 | B (a compound having 3 or more and less than 10 is denoted as B) | B (a compound having 3 or more and less than 10 is denoted as B)
CC[C@H](C)[C@@H]1NC(=O)[C@H](CC(C)C)N(C)C(=O)C[C@@H](C(=O)N2CCOCC2)N(C)C(=O)[C@H](C2CCCC2)N(C)C(=O)C(C)(C)NC(=O)[C@@H]2CCCN2C(=O)[C@H](CCc2cc(F)c(C(F)(F)F)c(F)c2)NC(=O)CN(C)C(=O)[C@H](Cc2ccc(C(F)(F)F)cc2)N2CCCC[C@@H](C2=O)N(C)C(=O)CN(C)C1=O [PP0565] | 0.16 | C (A compound having a KD ratio of 0.1 or more and less than 3 is denoted as C) | B (a compound having 3 or more and less than 10 is denoted as B)
CC[C@H](C)[C@@H]1NC(=O)[C@H](CC(C)C)N(C)C(=O)C[C@@H](C(=O)N2CCOCC2)N(C)C(=O)[C@H](C2CCC2)N(C)C(=O)C2(CCCC2)NC(=O)[C@@H]2CCCN2C(=O)[C@H](CCc2cc(F)c(C(F)(F)F)c(F)c2)NC(=O)CN(C)C(=O)[C@H](Cc2ccc(C(F)(F)F)cc2)N2CCCC[C@@H](C2=O)N(C)C(=O)CN(C)C1=O [PP0566] | 0.29 | B (a compound having 3 or more and less than 10 is denoted as B) | B (a compound having 3 or more and less than 10 is denoted as B)
CC[C@H](C)[C@@H]1NC(=O)[C@H](CC(C)C)N(C)C(=O)C[C@@H](C(=O)N2CCOCC2)N(C)C(=O)[C@H](C2CCCCC2)N(C)C(=O)C2(CCCC2)NC(=O)[C@@H]2CCCN2C(=O)[C@H](CCc2cc(F)c(C(F)(F)F)c(F)c2)NC(=O)CN(C)C(=O)[C@H](Cc2ccc(C(F)(F)F)cc2)N2CCCC[C@@H](C2=O)N(C)C(=O)CN(C)C1=O [PP0567] | 0.21 | B (a compound having 3 or more and less than 10 is denoted as B) | B (a compound having 3 or more and less than 10 is denoted as B)
CC[C@H](C)[C@@H]1NC(=O)[C@H](CC(C)C)N(C)C(=O)C[C@@H](C(=O)N2CCOCC2)N(C)C(=O)[C@H](CC(F)(F)F)N(C)C(=O)C2(CCCC2)NC(=O)[C@@H]2CCCN2C(=O)[C@H](CCc2cc(F)c(C(F)(F)F)c(F)c2)NC(=O)CN(C)C(=O)[C@H](Cc2ccc(C(F)(F)F)cc2)N2CCCC[C@@H](C2=O)N(C)C(=O)CN(C)C1=O [PP0568] | 1.1 | B (a compound having 3 or more and less than 10 is denoted as B) | B (a compound having 3 or more and less than 10 is denoted as B)
CC[C@H](C)[C@@H]1NC(=O)[C@H](CC(C)C)N(C)C(=O)C[C@@H](C(=O)N(C)C)N(C)C(=O)[C@H](C2CCCC2)N(C)C(=O)C2(CCCC2)NC(=O)[C@@H]2CCCN2C(=O)[C@H](CCc2cc(F)c(C(F)(F)F)c(F)c2)NC(=O)CN(C)C(=O)[C@H](Cc2ccc(C(F)(F)F)cc2)N2CCCC[C@@H](C2=O)N(C)C(=O)CN(C)C1=O [PP0569] | 0.034 | C (A compound having a KD ratio of 0.1 or more and less than 3 is denoted as C) | B (a compound having 3 or more and less than 10 is denoted as B)
CC[C@H](C)[C@@H]1NC(=O)[C@H](CC(C)C)N(C)C(=O)C[C@@H](C(=O)N2CCC2)N(C)C(=O)[C@H](C2CCCC2)N(C)C(=O)C2(CCCC2)NC(=O)[C@@H]2CCCN2C(=O)[C@H](CCc2cc(F)c(C(F)(F)F)c(F)c2)NC(=O)CN(C)C(=O)[C@H](Cc2ccc(C(F)(F)F)cc2)N2CCCC[C@@H](C2=O)N(C)C(=O)CN(C)C1=O [PP0570] | 0.046 | B (a compound having 3 or more and less than 10 is denoted as B) | B (a compound having 3 or more and less than 10 is denoted as B)
CC[C@H](C)[C@@H]1NC(=O)[C@H](CC(C)C)N(C)C(=O)C[C@@H](C(=O)N2CCCC2)N(C)C(=O)[C@H](C2CCCC2)N(C)C(=O)C2(CCCC2)NC(=O)[C@@H]2CCCN2C(=O)[C@H](CCc2cc(F)c(C(F)(F)F)c(F)c2)NC(=O)CN(C)C(=O)[C@H](Cc2ccc(C(F)(F)F)cc2)N2CCCC[C@@H](C2=O)N(C)C(=O)CN(C)C1=O [PP0571] | 0.05 | B (a compound having 3 or more and less than 10 is denoted as B) | B (a compound having 3 or more and less than 10 is denoted as B)
CC[C@H](C)[C@@H]1NC(=O)[C@H](CC(C)C)N(C)C(=O)C[C@@H](C(=O)N2CCCCC2)N(C)C(=O)[C@H](C2CCCC2)N(C)C(=O)C2(CCCC2)NC(=O)[C@@H]2CCCN2C(=O)[C@H](CCc2cc(F)c(C(F)(F)F)c(F)c2)NC(=O)CN(C)C(=O)[C@H](Cc2ccc(C(F)(F)F)cc2)N2CCCC[C@@H](C2=O)N(C)C(=O)CN(C)C1=O [PP0572] | 0.14 | B (a compound having 3 or more and less than 10 is denoted as B) | B (a compound having 3 or more and less than 10 is denoted as B)

Second part, led by results:

Kd [3] [nM] | Structure (SMILES) | NRAS/KRAS (ratio of KD value with respect to NRAS to KD value with respect to KRAS) [1] | HRAS/KRAS (ratio of KD value with respect to HRAS to KD value with respect to KRAS) [2]
0.026 | CC[C@H](C)[C@@H]1NC(=O)[C@H](CC(C)C)N(C)C(=O)C[C@@H](C(=O)N(C)C)N(C)C(=O)[C@H](C2CCCC2)N(C)C(=O)C2(CCC2)NC(=O)[C@@H]2CCCN2C(=O)[C@H](CCc2cc(F)c(C(F)(F)F)c(F)c2)NC(=O)CN(C)C(=O)[C@H](Cc2ccc(C(F)(F)F)cc2)N2CCCC[C@@H](C2=O)N(C)C(=O)CN(C)C1=O [PP0574] | C (A compound having a KD ratio of 0.1 or more and less than 3 is denoted as C) | B (a compound having 3 or more and less than 10 is denoted as B)
0.023 | CC[C@H](C)[C@@H]1NC(=O)[C@H](CC(C)C)N(C)C(=O)C[C@@H](C(=O)N2CCOCC2)N(C)C(=O)[C@H](C2CCCC2)N(C)C(=O)C2(CCC2)NC(=O)[C@@H]2CC(F)(F)CN2C(=O)[C@H](CCc2cc(F)c(C(F)(F)F)c(F)c2)NC(=O)CN(C)C(=O)[C@H](Cc2ccc(C(F)(F)F)cc2)N2CCCC[C@@H](C2=O)N(C)C(=O)CN(C)C1=O [PP0575] | B (a compound having 3 or more and less than 10 is denoted as B) | B (a compound having 3 or more and less than 10 is denoted as B)
0.019 | CC[C@H](C)[C@@H]1NC(=O)[C@H](CC(C)C)N(C)C(=O)C[C@@H](C(=O)N(C)C)N(C)C(=O)[C@H](C2CCCC2)N(C)C(=O)C2(CCCC2)NC(=O)[C@@H]2CC(F)(F)CN2C(=O)[C@H](CCc2cc(F)c(C(F)(F)F)c(F)c2)NC(=O)CN(C)C(=O)[C@H](Cc2ccc(C(F)(F)F)cc2)N2CCCC[C@@H](C2=O)N(C)C(=O)CN(C)C1=O [PP0576] | C (A compound having a KD ratio of 0.1 or more and less than 3 is denoted as C) | B (a compound having 3 or more and less than 10 is denoted as B)
0.019 | CC[C@H](C)[C@@H]1NC(=O)[C@H](CC(C)C)N(C)C(=O)C[C@@H](C(=O)N(C)C)N(C)C(=O)[C@H](C2CCCC2)N(C)C(=O)C2(CCC2)NC(=O)[C@@H]2CC(F)(F)CN2C(=O)[C@H](CCc2cc(F)c(C(F)(F)F)c(F)c2)NC(=O)CN(C)C(=O)[C@H](Cc2ccc(C(F)(F)F)cc2)N2CCCC[C@@H](C2=O)N(C)C(=O)CN(C)C1=O [PP0577] | C (A compound having a KD ratio of 0.1 or more and less than 3 is denoted as C) | C (A compound having a KD ratio of 0.1 or more and less than 3 is denoted as C)
0.029 | CCO[C@@H]1C[C@H]2C(=O)NC3(CCC3)C(=O)N(C)[C@@H](C3CCCC3)C(=O)N(C)[C@H](C(=O)N3CCOCC3)CC(=O)N(C)[C@@H](CC(C)C)C(=O)N[C@@H]([C@@H](C)CC)C(=O)N(C)CC(=O)N(C)[C@H]3CCCCN(C3=O)[C@@H](Cc3ccc(C(F)(F)F)cc3)C(=O)N(C)CC(=O)N[C@@H](CCc3cc(F)c(C(F)(F)F)c(F)c3)C(=O)N2C1 [PP0578] | B (a compound having 3 or more and less than 10 is denoted as B) | B (a compound having 3 or more and less than 10 is denoted as B)
